Laboratory results taken from ChEMBL document CHEMBL5647696, “Are all cyclin-dependent kinases 4/6 inhibitors created equal?” (NPJ Breast Cancer, 2019).

Columns and labels:
[1] = Volume of distribution in human; format: ADME
[2] = Elimination half life in human; format: ADME; conditions: read-out: beta t1/2 (converted)
[3] = Drug excretion in human feces; format: ADME, tissue-based; conditions: faeces, read-out: Drug excretion
[4] = Time to reach peak level in human; format: ADME
[5] = Drug excretion in human urine; format: ADME, tissue-based; conditions: read-out: Drug excretion
[6] = Bioavailability in human; format: ADME, organism-based; conditions: in vivo
[7] = Protein binding in human plasma; format: ADME, cell-free; conditions: read-out: PPB (converted)

| Vd [1] | half-life [2] | dose excreted [3] | Tmax [4] | dose excreted [5] | bioavailability [6] | fraction unbound [7] | Structure (SMILES) |
| --- | --- | --- | --- | --- | --- | --- | --- |
| 1090 L | 30 h | 69% | 1 h | 23% | – | – | CN(C)C(=O)c1cc2cnc(Nc3ccc(N4CCNCC4)cn3)nc2n1C1CCCC1 [RIBOCICLIB] |
| 690 L | – | 81% | 8 h | 3% | 45% | 0.07 | CCN1CCN(Cc2ccc(Nc3ncc(F)c(-c4cc(F)c5nc(C)n(C(C)C)c5c4)n3)nc2)CC1 [ABEMACICLIB] |
| 2580 L | 29 h | – | 6 h | – | – | – | CC(=O)c1c(C)c2cnc(Nc3ccc(N4CCNCC4)cn3)nc2n(C2CCCC2)c1=O [PALBOCICLIB] |
